Activity calls are given as the source filed them. The calls are words filed in the database; no cut-off is given here.
Tested on: Radical scavenging activity
Test: Antioxidant activity assessed as DPPH radical scavenging activity
Format: functional

Compound: O=C(O)C[C@@H]1C(=O)O[C@H]2[C@@H]3OC(=O)c4cc(O)c(O)c(O)c4-c4c(cc(O)c(O)c4O)C(=O)OC[C@H]2O[C@@H](OC(=O)c2cc(O)c(O)c(O)c2)[C@@H]3OC(=O)c2cc(O)c(O)c3c2[C@H]1[C@H](O)C(=O)O3
- Activity: Active

Compound: O=C(O)C[C@@H]1C(=O)O[C@H]2[C@@H]3OC(=O)c4cc(O)c(O)c(O)c4-c4c(cc(O)c(O)c4O)C(=O)OC[C@H]2O[C@@H](OC(=O)c2cc(O)c(O)c(O)c2)[C@@H]3OC(=O)c2cc(O)c(O)c3c2[C@H]1[C@@](O)(C(=O)O)O3
- Activity: Active

From ChEMBL document CHEMBL1156390, “Phyllanemblinins A-F, new ellagitannins from Phyllanthus emblica” (J Nat Prod, 2001)
